{"source": "patent US6177475A", "about": "“Methods of using integrin modulators for treatment of inflammation” (priority 1997, dated 2001)", "key": {"[1]": {"system": "lymphocyte infiltration into the pancreata", "experiment": "Spontaneous development of autoimmune diabetes in NOD mice (lymphocyte infiltration of pancreata)", "type": "in vivo, Nonobese diabetic (NOD) mice", "conditions": "0.3 mg/kg i.p. every other day, 9 weeks", "description": "(§1) Nonobese diabetic (NOD) mice are characterized by spontaneous development of insulitis (similar to human insulin-dependent diabetes) and sialoadenitis (similar to Sjogren's disease). The development of autoirmune inflammation in these animals involves several integrin receptors, including VLA-4, CR3, and LFA-1 (CD11a/CD18). Lymphocyte infiltration into the pancreata is mediated primarily by VIA-4, whereas the predominant mechanism of lymphocyte recruitment into the salivary glands involves LFA-1.\n(§2) NOD mice (age, 3 to 4 weeks old; average body weight, 10 g) were divided into three groups. Experimental animals received intraperitoneal injections of disintegrins (0.3 mg/kg per animal every other day) for 9 weeks. Control mice were administered with the vehicle.\n(§3) The mice were sacrificed and subjected to autopsy. The pancreata and salivary glands were removed and frozen (-70° C.). Thin sections (5 micrometer thick) of these organs were fixed in acetone, stained with hematoxylin and eosin, and evaluated microscopically for lymphocyte infiltration (Tables 6 and 7)."}, "[2]": {"system": "lymphocyte infiltration into the salivary glands", "experiment": "Spontaneous development of autoimmune sialoadenitis in NOD mice (lymphocyte infiltration of salivary glands)", "type": "in vivo, Nonobese diabetic (NOD) mice", "conditions": "0.3 mg/kg i.p. every other day, 9 weeks", "description": "as §1, §2, §3"}, "[3]": {"system": "MT-2 cells / K562/VCAM-1 cells (HTLV-I)", "experiment": "Syncytium formation of HTLV-I-infected MT-2 cells with K562/VCAM-1 cells", "type": "cell-based", "conditions": "3.4 micromoles per liter; higher concentrations not tested", "description": "MT-2 cells harbor the complete genome of human T cell lymphotropic virus type 1 (HTLV-I), and they transmit the virus to susceptible uninfected cells in cocultures. The transmission manifests itself as fusion of MT-2 cells with the uninfected cells, followed by syncytium formation. K562 cells transfected with VCAM-1, a ligand of the integrin VIA-4, were used as a fusion partner for MT-2 cells. MT-2 and K562/VCAM-1 cells were washed and resuspended in complete RPMI medium at a density of 2×10^6 /ml. MT2 cells were seeded into flat-bottom 96-well microtiter plates (100 microliters per well). Serial dilutions of Ajoene or of the disintegrin kistrin (final concentration) were introduced into the wells, and the plate was incubated for 30 min prior to addition of 100 microliters of K562/VCAM-1 cells. The plates were then incubated for 4 h before scoring syncytium formation."}, "[4]": {"conditions": "pancreas, (+) 1-3 infiltrated islets"}, "[5]": {"conditions": "pancreas, (-) no infiltrating lymphocytes"}, "[6]": {"conditions": "(+) 1-3 small foci involving only one duct"}, "[7]": {"conditions": "(+++) 2 or more foci involving several ducts"}, "[8]": {"conditions": "(-) no infiltrating lymphocytes"}}, "data": [{"substance": "Kistrin", "values": [{"measurement": "development of large infiltrates in pancreatic islets", "setting": "[1]", "value": "completely prevented the development of large infiltrates"}, {"measurement": "proportion of animals with mild infiltration of pancreatic islets", "setting": "[1]", "value": "increased the proportion of animals with mild infiltration of pancreatic islets"}, {"measurement": "Number of mice with infiltration score (+)", "setting": "[1]; [4]", "value": 2, "unit": "mice"}, {"measurement": "Percentage of mice with infiltration score (+)", "setting": "[1]; [4]", "value": 40, "unit": "%"}, {"measurement": "Number of mice with infiltration score (++)", "setting": "[1]; pancreas, (++) 4 islets with moderate infiltration and/or 1-2 islets with large infiltrates", "value": 0, "unit": "mice"}, {"measurement": "Number of mice with infiltration score (+++)", "setting": "[1]; pancreas, (+++) 3 or more large infiltrates", "value": 0, "unit": "mice"}, {"measurement": "Number of mice with infiltration score (-)", "setting": "[1]; [5]", "value": 3, "unit": "mice"}, {"measurement": "Percentage of mice with infiltration score (-)", "setting": "[1]; [5]", "value": 60, "unit": "%"}, {"measurement": "Number of mice with infiltration score (+)", "setting": "[2]; [6]", "value": 2, "unit": "mice"}, {"measurement": "Percentage of mice with infiltration score (+)", "setting": "[2]; [6]", "value": 40.0, "unit": "%"}, {"measurement": "Number of mice with infiltration score (++)", "setting": "[2]; (++) small foci and/or 1 large focus involving several ducts", "value": 0, "unit": "mice"}, {"measurement": "Number of mice with infiltration score (+++)", "setting": "[2]; [7]", "value": 1, "unit": "mice"}, {"measurement": "Percentage of mice with infiltration score (+++)", "setting": "[2]; [7]", "value": 20.0, "unit": "%"}, {"measurement": "Number of mice with infiltration score (-)", "setting": "[2]; [8]", "value": 2, "unit": "mice"}, {"measurement": "Percentage of mice with infiltration score (-)", "setting": "[2]; [8]", "value": 40.0, "unit": "%"}, {"measurement": "inhibition of syncytium formation", "setting": "[3]", "value": "~ 40%"}]}]}
